Test results reported in patent US6784137B2, “6-aryl-4-aminopicolinates and their use as herbicides” (Dow AgroSciences LLC, priority 2001, dated 2004).
Where two headings read alike, the source gives them in different places.

Legend:
[1] = tested on: Corn (#14 3377) (Zea mays); experiment: Postemergence herbicidal activity, selectivity to corn; type: in vivo; details: post-emergence, 336 h, Table 4, rate 62.5 (unit inferred), crop injury, read-out: Post-emergent % control ZEAMX
Method: (§1) Seeds of the desired test plant species were planted in Grace-Sierra MetroMix® 306 planting mixture, which typically has a pH of 6.0 to 6.8 and an organic matter content of about 30 percent, in plastic pots with a surface area of 64 square centimeters. When required to ensure good germination and healthy plants, a fungicide treatment and/or other chemical or physical treatment was applied. The plants were grown for 7-21 days in a greenhouse with an approximate 15 hr photoperiod which was maintained at about 23-29° C. during the day and 22-28° C. during the night. Nutrients and water were added on a regular basis and supplemental lighting was provided with overhead metal halide 1000-Watt lamps as necessary. The plants were employed for testing when they reached the first or second true leaf stage. A weighed amount, determined by the highest rate to be tested, of each test compound was placed in a 20 mL glass vial and was dissolved in 4 mL of a 97:3 v/v (volume/volume) mixture of acetone and dimethyl sulfoxide (DMSO) to obtain concentrated stock solutions. […] The concentrated stock solutions obtained were diluted with an aqueous mixture containing acetone, water, isopropyl alcohol, DMSO, At plus 411 F crop oil concentrate, and Triton X-155 surfactant in a 48.5:39:10:1.5:1.0:0.02 v/v ratio to obtain spray solutions of known concentration. The solutions containing the highest concentration to be tested were prepared by diluting 2 mL aliquots of the stock solution with 13 mL of the mixture and lower concentrations were prepared by serial dilution of the stock solution. Approximately 1.5 mL aliquots of each solution of known concentration were sprayed evenly onto each of the test plant pots using a DeVilbiss atomizer driven by compressed air pressure of […] (140 to 280 kiloPascals) to obtain thorough coverage of each plant. Control plants were sprayed in the same manner with the aqueous mixture. In this test an application rate of 1 ppm results in the application of approximately 1 g/Ha. The treated plants and control plants were placed in a greenhouse as described above and watered by sub-irrigation to prevent wash-off of the test compounds. After 2 weeks the condition of the test plants as compared with that of the untreated plants was determined visually and scored on a scale of 0 to 100 percent where 0 corresponds to no injury and 100 corresponds to complete kill.

[2] = tested on: Pigweed (redroot) (Amaranthus retroflexus); experiment: Postemergence herbicidal activity, greenhouse spray; type: in vivo; details: Amaranthus retroflexus, post-emergence, 336 h, rate 62.5 (unit inferred), visual score after 2 weeks, read-out: Post-emergent % control AMARE
How it was run: (§2)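 Foliar spray at 1st-2nd true leaf; carrier: acetone/water/IPA/DMSO/crop oil concentrate/Triton X-155 (48.5:39:10:1.5:1.0:0.02). Serial dilutions from acetone:DMSO stock. Greenhouse ~15 h light, 23-29° C day. Sub-irrigated post-treatment. Carrier-sprayed controls.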

[3] = tested on: Crabgrass(large) (Digitaria sanguinalis); experiment: Preemergence herbicidal activity, soil spray; type: in vivo; details: Digitaria sanguinalis, pre-emergence, 504 h, Table 5, visual score after 3 weeks, read-out: Pre-emergent % control DIGSA; for pest or weed control at 560 ppm: rate 560 ppm; for pest or weed control at 140 ppm: rate 140 ppm
How it was run: (§3)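 Test species were planted first, then the soil of each pot was sprayed with compound solutions of known concentration made in water containing 0.1% Tween 155 from acetone–DMSO stocks. The growth matrix was a 70:30 loam and sand blend with pH near 8.1.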

[4] = tested on: Giant Foxtail (Setaria faberi); experiment: Preemergence herbicidal activity, soil spray; type: in vivo; details: Setaria faberi, pre-emergence, 504 h, Table 5, visual score after 3 weeks, read-out: Pre-emergent % control SETFA; for pest or weed control at 560 ppm: rate 560 ppm; for pest or weed control at 140 ppm: rate 140 ppm
How it was run: as §3

[5] = tested on: Lambsquarter (Chenopodium album); experiment: Preemergence herbicidal activity, soil spray; type: in vivo; details: Chenopodium album, pre-emergence, 504 h, Table 5, visual score after 3 weeks, read-out: Pre-emergent % control CHEAL; for pest or weed control at 560 ppm: rate 560 ppm, 100 complete kill or no germination; for pest or weed control at 140 ppm: rate 140 ppm
How it was run: as §3

[6] = tested on: Pigweed (redroot) (Amaranthus retroflexus); experiment: Preemergence herbicidal activity, soil spray; type: in vivo; details: Amaranthus retroflexus, pre-emergence, 504 h, Table 5, visual score after 3 weeks, read-out: Pre-emergent % control AMARE; for pest or weed control at 560 ppm: rate 560 ppm; for pest or weed control at 140 ppm: rate 140 ppm
How it was run: as §3

[7] = tested on: Wheat(var. Merica) (Triticum aestivum); experiment: Postemergence herbicidal activity, selectivity to wheat; type: in vivo; details: post-emergence, 336 h, Table 3, rate 62.5 (unit inferred), crop injury, read-out: Post-emergent % control TRZAS
Method: as §1

[8] = tested on: Yellow nutsedge (Cyperus esculentus); experiment: Postemergence herbicidal activity, greenhouse spray; type: in vivo; details: Cyperus, post-emergence, 336 h, visual score after 2 weeks, read-out: Post-emergent % control CYPES; for pest or weed control at 500 ppm / pest or weed control at 250 ppm: Table 1; for pest or weed control at 500 ppm: rate 500 ppm; for pest or weed control at 250 ppm: rate 250 ppm; for pest or weed control at 125 ppm: Table 2, rate 125 ppm
How it was run: as §2

[9] = tested on: Cocklebur (Xanthium strumarium); experiment: as above; type: in vivo; details: Xanthium strumarium, post-emergence, 336 h, visual score after 2 weeks, read-out: Post-emergent % control XANST; for pest or weed control at 500 ppm / pest or weed control at 250 ppm: Table 1; for pest or weed control at 500 ppm: rate 500 ppm, 0 no injury, 100 complete kill; for pest or weed control at 250 ppm: rate 250 ppm; for pest or weed control at 125 ppm: Table 2, rate 125 ppm
How it was run: as §2

[10] = tested on: Lambsquarter (Chenopodium album); experiment: as above; type: in vivo; details: Chenopodium album, post-emergence, 336 h, visual score after 2 weeks, read-out: Post-emergent % control CHEAL; for pest or weed control at 500 ppm / pest or weed control at 250 ppm: Table 1; for pest or weed control at 500 ppm: rate 500 ppm; for pest or weed control at 250 ppm: rate 250 ppm; for pest or weed control at 125 ppm: Table 2, rate 125 ppm
How it was run: as §2

[11] = tested on: Barnyardgrass (Echinochloa crus-galli); experiment: as above; type: in vivo; details: Echinochloa crus-galli, post-emergence, 336 h, visual score after 2 weeks, read-out: Post-emergent % control ECHCG; for pest or weed control at 500 ppm / pest or weed control at 250 ppm: Table 1; for pest or weed control at 500 ppm: rate 500 ppm; for pest or weed control at 250 ppm: rate 250 ppm; for pest or weed control at 125 ppm: Table 2, rate 125 ppm
How it was run: as §2

SMILES: COC(=O)c1nc(-c2ccc(Cl)cc2C)cc(N)c1Cl [Compound 45, Methyl 4-amino-3-chloro-6-(4-chloro-2-methylphenyl)pyridine-2-carboxylate]
- pest or weed control at 62.5 µg/mL [1]: 0%
- melting point: 114 to 115 °C
- pest or weed control at 62.5 µg/mL ([2]; Table 4): 100%

SMILES: COC(=O)c1nc(-c2ccc3c(c2)OCO3)cc(N)c1Cl [Compound 29, Methyl 4-amino-3-chloro-6-(3,4-methylenedioxyphenyl)pyridine-2-carboxylate]
- pest or weed control at 560 ppm [3]: 100%
- pest or weed control at 560 ppm [4]: 90%
- pest or weed control at 560 ppm [5]: 100%
- pest or weed control at 560 ppm [6]: 95%
- pest or weed control at 62.5 µg/mL [7]: 10%
- melting point: 184 °C
- pest or weed control at 500 ppm [8]: 80%
- pest or weed control at 500 ppm [9]: 100%
- pest or weed control at 500 ppm [10]: 100%
- pest or weed control at 500 ppm [11]: 95%
- pest or weed control at 62.5 µg/mL ([2]; Table 3): 90%

SMILES: Nc1cc(-c2ccc(Cl)cc2Cl)nc(C(=O)O)c1Cl [Compound 146, 4-Amino-3-chloro-6-(2,4-dichlorophenyl)pyridine-2-carboxylic acid]
- pest or weed control at 560 ppm [3]: 80%
- pest or weed control at 560 ppm [4]: 90%
- pest or weed control at 560 ppm [5]: 100%
- pest or weed control at 560 ppm [6]: 100%
- pest or weed control at 62.5 µg/mL [1]: 0%
- melting point: 176 to 177 °C
- pest or weed control at 250 ppm [8]: 98%
- pest or weed control at 125 ppm [8]: 95%
- pest or weed control at 250 ppm [9]: 100%
- pest or weed control at 125 ppm [9]: 100%
- pest or weed control at 250 ppm [10]: 100%
- pest or weed control at 125 ppm [10]: 100%
- pest or weed control at 250 ppm [11]: 85%
- pest or weed control at 125 ppm [11]: 75%
- pest or weed control at 62.5 µg/mL ([2]; Table 4): 100%

SMILES: COC(=O)c1nc(-c2ccc(C)cc2)cc(N)c1Cl [Compound 20, Methyl 4-amino-3-chloro-6-(4-methylphenyl)pyridine-2-carboxylate]
- pest or weed control at 560 ppm [3]: 100%
- pest or weed control at 560 ppm [4]: 100%
- pest or weed control at 560 ppm [5]: 100%
- pest or weed control at 560 ppm [6]: 100%
- pest or weed control at 62.5 µg/mL [7]: 10%
- melting point: 111 to 113 °C
- pest or weed control at 250 ppm [8]: 50%
- pest or weed control at 250 ppm [9]: 100%
- pest or weed control at 250 ppm [10]: 100%
- pest or weed control at 250 ppm [11]: 70%
- pest or weed control at 62.5 µg/mL ([2]; Table 3): 100%

SMILES: COC(=O)c1nc(-c2ccc(F)cc2Cl)cc(N)c1Cl [Compound 58, Methyl 4-amino-3-chloro-6-(2-chloro-4-fluorophenyl)pyridine-2-carboxylate]
- pest or weed control at 62.5 µg/mL [1]: 0%
- melting point: 155 to 157 °C
- pest or weed control at 500 ppm [8]: 70%
- pest or weed control at 500 ppm [9]: 100%
- pest or weed control at 500 ppm [10]: 100%
- pest or weed control at 500 ppm [11]: 70%
- pest or weed control at 62.5 µg/mL ([2]; Table 4): 100%

SMILES: Nc1cc(-c2ccc3c(c2)OCO3)nc(C(=O)O)c1Cl [Compound 153, 4-Amino-3-chloro-6-(3,4-methylenedioxyphenyl)pyridine-2-carboxylic acid]
- pest or weed control at 560 ppm [3]: 100%
- pest or weed control at 560 ppm [4]: 100%
- pest or weed control at 560 ppm [5]: 100%
- pest or weed control at 560 ppm [6]: 100%
- pest or weed control at 62.5 µg/mL [7]: 10%
- melting point: 182 °C
- pest or weed control at 500 ppm [8]: 70%
- pest or weed control at 500 ppm [9]: 100%
- pest or weed control at 500 ppm [10]: 98%
- pest or weed control at 500 ppm [11]: 95%
- pest or weed control at 62.5 µg/mL ([2]; Table 3): 100%

SMILES: Cc1cc(Cl)ccc1-c1cc(N)c(Cl)c(C(=O)O)n1 [Compound 155, 4-Amino-3-chloro-6-(4-chloro-2-methylphenyl)pyridine-2-carboxylic acid]
- pest or weed control at 62.5 µg/mL [1]: 0%
- melting point: 153 to 154 °C
- pest or weed control at 62.5 µg/mL ([2]; Table 4): 100%

SMILES: COC(=O)c1nc(-c2ccc(Cl)cc2F)cc(NC(C)=O)c1Cl [Compound 52, Methyl 4-acetamido-3-chloro-6-(4-chloro-2-fluorophenyl)pyridine-2-carboxylate]
- pest or weed control at 140 ppm [3]: 100%
- pest or weed control at 140 ppm [4]: 95%
- pest or weed control at 140 ppm [5]: 100%
- pest or weed control at 140 ppm [6]: 100%
- pest or weed control at 62.5 µg/mL [7]: 10%
- melting point: 134 to 135 °C
- pest or weed control at 500 ppm [8]: 40%
- pest or weed control at 500 ppm [9]: 100%
- pest or weed control at 500 ppm [10]: 100%
- pest or weed control at 500 ppm [11]: 90%
- pest or weed control at 62.5 µg/mL ([2]; Table 3): 70%

SMILES: Cc1ccc(-c2cc(N)c(Cl)c(C(=O)O)n2)cc1 [Compound 136, 4-Amino-3-chloro-6-(4-methylphenyl)pyridine-2-carboxylic acid]
- pest or weed control at 560 ppm [3]: 100%
- pest or weed control at 560 ppm [4]: 100%
- pest or weed control at 560 ppm [5]: 100%
- pest or weed control at 560 ppm [6]: 100%
- pest or weed control at 62.5 µg/mL [7]: 0%
- melting point: 166 to 167 °C
- pest or weed control at 250 ppm [8]: 80%
- pest or weed control at 125 ppm [8]: 70%
- pest or weed control at 250 ppm [9]: 100%
- pest or weed control at 125 ppm [9]: 100%
- pest or weed control at 250 ppm [10]: 100%
- pest or weed control at 125 ppm [10]: 100%
- pest or weed control at 250 ppm [11]: 70%
- pest or weed control at 125 ppm [11]: 70%
- pest or weed control at 62.5 µg/mL ([2]; Table 3): 100%

SMILES: Cc1ccc(-c2cc(N)c(Cl)c(C(=O)O)n2)cc1C [Compound 132, 4-amino-3-chloro-6-(3,4-dimethylphenyl)pyridine-2-carboxylic acid]
- pest or weed control at 140 ppm [3]: 100%
- pest or weed control at 140 ppm [4]: 95%
- pest or weed control at 140 ppm [5]: 100%
- pest or weed control at 140 ppm [6]: 90%
- pest or weed control at 62.5 µg/mL [7]: 0%
- melting point: 192 to 194 °C
- pest or weed control at 500 ppm [8]: 0%
- pest or weed control at 500 ppm [9]: 100%
- pest or weed control at 500 ppm [10]: 90%
- pest or weed control at 500 ppm [11]: 80%
- pest or weed control at 62.5 µg/mL ([2]; Table 3): 70%
